The results in this text go back to ChEMBL document CHEMBL3352603, “Synthesis and preliminary investigations into novel 1,2,3-triazole-derived androgen receptor antagonists inspired by bicalutamide” (Bioorg Med Chem Lett, 2014).

Bounds are passed on as bounds.

In experiment [1] the test system is LNCaP. As to the kind of experiment: Growth inhibition of human LNCAP cells. The format is functional, cell-based.
Experiment [2] in a line: Growth inhibition of human PC3 cells. The format is functional, cell-based. As to conditions: PC-3.

The IC50 is the concentration that gives 50% inhibition. The low end stands for inhibition by little substance, the high end for a need for much substance. `CC(O)(CS(=O)(=O)c1ccc(F)cc1)c1cn(-c2ccc(C#N)c(C(F)(F)F)c2)nn1` (racemic): the IC50 in experiment [1] was 45 µM; in experiment [2], above 300 µM.
In the case of `CC(O)(CS(=O)(=O)c1ccc(F)cc1)c1cn(-c2ccc([N+](=O)[O-])c(C(F)(F)F)c2)nn1` (racemic), the 50% inhibitory concentration (IC50) in experiment [1] is 36 µM; in experiment [2], above 300 µM.
`CCOC(=O)c1ccc(-n2cc(C(C)(O)CS(=O)(=O)c3ccc(F)cc3)nn2)cc1` (racemic): the IC50 in experiment [1] and in experiment [2] was above 300 µM each time.
For the molecule `CC(O)(CS(=O)(=O)c1ccc(F)cc1)c1cn(-c2ccc(C(=O)O)cc2)nn1` (racemic), the half-inhibitory concentration (IC50) in experiment [1] and in experiment [2] was above 300 µM each time.
Take `CC(O)(CS(=O)(=O)c1ccccc1)c1cn(-c2ccc(C#N)c(C(F)(F)F)c2)nn1` (racemic): the IC50 in experiment [1] worked out at 151 µM; in experiment [2], 114 µM.
For `CC(O)(CS(=O)(=O)c1ccccc1)c1cn(-c2ccc([N+](=O)[O-])c(C(F)(F)F)c2)nn1` (racemic), in that order: 34 µM and 29 µM.
For `CC(O)(CS(=O)(=O)c1ccc(F)cc1)C(=O)Nc1ccc(C#N)c(C(F)(F)F)c1` (centres undefined) [BICALUTAMIDE], in that order: 30 µM and 58 µM.
